Results as given in PubChem BioAssay (NCI).
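Following 48 hours of exposure in 96-well plates, responses at five concentrations were used to interpolate endpoints linearly. Here, GI50 denotes the concentration required for 50% inhibition of growth. At the TGI there is no net growth.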

Tests used:
Assay in all cases: growth of human tumour cells (NCI), 48 h
SK-OV-3 ovarian = tested on: SK-OV-3 ovarian
SN12C renal = tested on: SN12C renal
NCI-H23 lung = tested on: NCI-H23 lung
MDA-MB-231 breast = tested on: MDA-MB-231 breast
MOLT-4 leukemia = tested on: MOLT-4 leukemia
BT-549 breast = tested on: BT-549 breast
K-562 leukemia = tested on: K-562 leukemia
SW-620 colon = tested on: SW-620 colon
LOX IMVI melanoma = tested on: LOX IMVI melanoma
KM12 colon = tested on: KM12 colon
UACC-62 melanoma = tested on: UACC-62 melanoma
OVCAR-3 ovarian = tested on: OVCAR-3 ovarian
OVCAR-4 ovarian = tested on: OVCAR-4 ovarian
SNB-19 CNS = tested on: SNB-19 CNS
SNB-75 CNS = tested on: SNB-75 CNS
HT29 colon = tested on: HT29 colon
NCI-H226 lung = tested on: NCI-H226 lung
T-47D breast = tested on: T-47D breast
U251 CNS = tested on: U251 CNS
HCT-116 colon = tested on: HCT-116 colon
EKVX NSCLC = tested on: EKVX NSCLC
M14 melanoma = tested on: M14 melanoma
A498 renal = tested on: A498 renal
HOP-62 NSCLC = tested on: HOP-62 NSCLC
786-0 renal = tested on: 786-0 renal
SK-MEL-5 melanoma = tested on: SK-MEL-5 melanoma
NCI/ADR-RES ovarian = tested on: NCI/ADR-RES ovarian
CAKI-1 renal = tested on: CAKI-1 renal
SF-539 CNS = tested on: SF-539 CNS
OVCAR-5 ovarian = tested on: OVCAR-5 ovarian
RPMI-8226 leukemia = tested on: RPMI-8226 leukemia
TK-10 renal = tested on: TK-10 renal
ACHN renal = tested on: ACHN renal
SF-268 CNS = tested on: SF-268 CNS
HCC-2998 colon = tested on: HCC-2998 colon
DU-145 prostate = tested on: DU-145 prostate
UACC-257 melanoma = tested on: UACC-257 melanoma
OVCAR-8 ovarian = tested on: OVCAR-8 ovarian
HOP-92 NSCLC = tested on: HOP-92 NSCLC
HCT-15 colon = tested on: HCT-15 colon
UO-31 renal = tested on: UO-31 renal
MDA-MB-435 = tested on: MDA-MB-435
IGROV1 ovarian = tested on: IGROV1 ovarian
HS 578T breast = tested on: HS 578T breast
SR leukemia = tested on: SR leukemia
SK-MEL-28 melanoma = tested on: SK-MEL-28 melanoma
MCF7 breast = tested on: MCF7 breast
NCI-H522 lung = tested on: NCI-H522 lung
COLO 205 colon = tested on: COLO 205 colon
CCRF-CEM leukemia = tested on: CCRF-CEM leukemia
SF-295 CNS = tested on: SF-295 CNS
PC-3 prostate = tested on: PC-3 prostate
RXF 393 renal = tested on: RXF 393 renal
HL-60(TB) leukemia = tested on: HL-60(TB) leukemia

Structure (SMILES): C=CC[C@@H]1C=C[C@@H](C(=O)OC)n2c(=O)n(-c3ccccc3)c(=O)n21
- TGI (SK-OV-3 ovarian): > 100 µM
- TGI (SN12C renal): > 100 µM
- TGI (NCI-H23 lung): > 100 µM
- TGI (MDA-MB-231 breast): > 100 µM
- TGI (MOLT-4 leukemia): > 100 µM
- TGI (BT-549 breast): > 100 µM
- TGI (K-562 leukemia): > 100 µM
- TGI (SW-620 colon): > 100 µM
- TGI (LOX IMVI melanoma): > 100 µM
- TGI (KM12 colon): > 100000 nM
- TGI (UACC-62 melanoma): > 100 µM
- TGI (OVCAR-3 ovarian): > 100000 nM
- TGI (OVCAR-4 ovarian): > 100 µM
- TGI (SNB-19 CNS): > 100 µM
- TGI (SNB-75 CNS): > 100 µM
- TGI (HT29 colon): > 100 µM
- TGI (NCI-H226 lung): > 100 µM
- TGI (T-47D breast): > 100 µM
- TGI (U251 CNS): > 100 µM
- TGI (HCT-116 colon): > 100 µM
- TGI (EKVX NSCLC): > 100 µM
- TGI (M14 melanoma): > 100 µM
- TGI (A498 renal): > 100 µM
- TGI (HOP-62 NSCLC): > 100 µM
- TGI (786-0 renal): > 100 µM
- TGI (SK-MEL-5 melanoma): > 100 µM
- TGI (NCI/ADR-RES ovarian): > 100 µM
- TGI (CAKI-1 renal): > 100 µM
- TGI (SF-539 CNS): > 100 µM
- TGI (OVCAR-5 ovarian): > 100 µM
- TGI (RPMI-8226 leukemia): > 100 µM
- TGI (TK-10 renal): > 100 µM
- TGI (ACHN renal): > 100 µM
- TGI (SF-268 CNS): > 100 µM
- TGI (HCC-2998 colon): > 100000 nM
- TGI (DU-145 prostate): > 100 µM
- TGI (UACC-257 melanoma): > 100 µM
- TGI (OVCAR-8 ovarian): > 100 µM
- TGI (HOP-92 NSCLC): > 100 µM
- TGI (HCT-15 colon): > 100000 nM
- TGI (UO-31 renal): > 100 µM
- TGI (MDA-MB-435): > 100 µM
- TGI (IGROV1 ovarian): > 100 µM
- TGI (HS 578T breast): > 100 µM
- TGI (SR leukemia): > 100 µM
- TGI (SK-MEL-28 melanoma): > 100 µM
- TGI (MCF7 breast): > 100 µM
- TGI (NCI-H522 lung): > 100 µM
- TGI (COLO 205 colon): > 100 µM
- TGI (CCRF-CEM leukemia): > 100 µM
- TGI (SF-295 CNS): > 100 µM

Structure (SMILES): COc1ccc(C2=Nc3c/c(=C\c4c(O)[nH]c5ccc(Cl)cc45)ccc3=N2)cc1
- GI50 (SK-OV-3 ovarian): 2230 nM
- TGI (SK-OV-3 ovarian): 5.23 µM
- GI50 (MOLT-4 leukemia): 1990 nM
- TGI (MOLT-4 leukemia): 6.08 µM
- GI50 (PC-3 prostate): 1560 nM
- TGI (PC-3 prostate): 4 µM
- GI50 (K-562 leukemia): 1000 nM
- TGI (K-562 leukemia): 6.29 µM
- GI50 (SW-620 colon): 1410 nM
- TGI (SW-620 colon): 3.28 µM
- GI50 (KM12 colon): 1220 nM
- TGI (KM12 colon): 2650 nM
- GI50 (OVCAR-3 ovarian): 1530 nM
- TGI (OVCAR-3 ovarian): 2910 nM
- GI50 (OVCAR-4 ovarian): 1800 nM
- TGI (OVCAR-4 ovarian): 3.34 µM
- GI50 (SNB-19 CNS): 1840 nM
- TGI (SNB-19 CNS): 5.85 µM
- GI50 (NCI-H226 lung): 13.8 µM
- TGI (NCI-H226 lung): 37 µM
- GI50 (T-47D breast): 2220 nM
- TGI (T-47D breast): 5.63 µM
- GI50 (RXF 393 renal): 1580 nM
- TGI (RXF 393 renal): 3.15 µM
- GI50 (HCT-116 colon): 1550 nM
- TGI (HCT-116 colon): 3.1 µM
- GI50 (M14 melanoma): 1290 nM
- TGI (M14 melanoma): 3.67 µM
- GI50 (A498 renal): 1330 nM
- TGI (A498 renal): 7.78 µM
- GI50 (HOP-62 NSCLC): 1820 nM
- TGI (HOP-62 NSCLC): 4.02 µM
- GI50 (786-0 renal): 1940 nM
- TGI (786-0 renal): 3.81 µM
- GI50 (SF-539 CNS): 1780 nM
- TGI (SF-539 CNS): 3.87 µM
- GI50 (OVCAR-5 ovarian): 1860 nM
- TGI (OVCAR-5 ovarian): 4 µM
- GI50 (TK-10 renal): 2450 nM
- TGI (TK-10 renal): 4.42 µM
- GI50 (ACHN renal): 1830 nM
- TGI (ACHN renal): 3.47 µM
- GI50 (SF-268 CNS): 2090 nM
- TGI (SF-268 CNS): 5.47 µM
- GI50 (HCC-2998 colon): 1240 nM
- TGI (HCC-2998 colon): 2510 nM
- GI50 (DU-145 prostate): 1630 nM
- TGI (DU-145 prostate): 3.17 µM
- GI50 (OVCAR-8 ovarian): 2050 nM
- TGI (OVCAR-8 ovarian): 4.7 µM
- GI50 (HL-60(TB) leukemia): 1510 nM
- TGI (HL-60(TB) leukemia): 3.94 µM
- GI50 (HCT-15 colon): 1260 nM
- TGI (HCT-15 colon): 2770 nM
- GI50 (UO-31 renal): 1460 nM
- TGI (UO-31 renal): 3.46 µM
- GI50 (IGROV1 ovarian): 2160 nM
- TGI (IGROV1 ovarian): 5.28 µM
- GI50 (HS 578T breast): 1730 nM
- TGI (HS 578T breast): 4.8 µM
- GI50 (SR leukemia): 693 nM
- TGI (SR leukemia): 3.4 µM
- GI50 (SK-MEL-28 melanoma): 1590 nM
- TGI (SK-MEL-28 melanoma): 5.13 µM
- GI50 (COLO 205 colon): 1930 nM
- TGI (COLO 205 colon): 3.67 µM
- GI50 (CCRF-CEM leukemia): 1970 nM
- TGI (CCRF-CEM leukemia): 5.52 µM
